Values after ≈ are worked out from the molar mass of the structure shown.
Assays:
[1] = target: Platelet-derived growth factor receptor beta (Homo sapiens) (UniProt P09619); assay: Inhibition of N-terminal GST tagged human PDGFRbeta (557 to 1106 end residues) cytoplasmic domain expressed in baculovirus expression system at 1 uM in presence of ATP at its Km level relative to control
[2] = target: Serine/threonine-protein kinase SIK1 (Homo sapiens) (UniProt P57059); assay: Inhibition of N-terminal GST tagged full length human SIK (1 to 783 end residues) expressed in baculovirus expression system at 1 uM in presence of ATP at its Km level relative to control
[3] = target: T1, Tyrosine-protein kinase JAK2 (Homo sapiens, UniProt O60674); assay: Inhibition of N-terminal His tagged human JAK2 (826 to 1132 end residues) catalytic domain expressed in baculovirus expression system at 1 uM in presence of ATP at its Km level relative to control
T1 sequence (O60674 whole entry, the tested form may be a part): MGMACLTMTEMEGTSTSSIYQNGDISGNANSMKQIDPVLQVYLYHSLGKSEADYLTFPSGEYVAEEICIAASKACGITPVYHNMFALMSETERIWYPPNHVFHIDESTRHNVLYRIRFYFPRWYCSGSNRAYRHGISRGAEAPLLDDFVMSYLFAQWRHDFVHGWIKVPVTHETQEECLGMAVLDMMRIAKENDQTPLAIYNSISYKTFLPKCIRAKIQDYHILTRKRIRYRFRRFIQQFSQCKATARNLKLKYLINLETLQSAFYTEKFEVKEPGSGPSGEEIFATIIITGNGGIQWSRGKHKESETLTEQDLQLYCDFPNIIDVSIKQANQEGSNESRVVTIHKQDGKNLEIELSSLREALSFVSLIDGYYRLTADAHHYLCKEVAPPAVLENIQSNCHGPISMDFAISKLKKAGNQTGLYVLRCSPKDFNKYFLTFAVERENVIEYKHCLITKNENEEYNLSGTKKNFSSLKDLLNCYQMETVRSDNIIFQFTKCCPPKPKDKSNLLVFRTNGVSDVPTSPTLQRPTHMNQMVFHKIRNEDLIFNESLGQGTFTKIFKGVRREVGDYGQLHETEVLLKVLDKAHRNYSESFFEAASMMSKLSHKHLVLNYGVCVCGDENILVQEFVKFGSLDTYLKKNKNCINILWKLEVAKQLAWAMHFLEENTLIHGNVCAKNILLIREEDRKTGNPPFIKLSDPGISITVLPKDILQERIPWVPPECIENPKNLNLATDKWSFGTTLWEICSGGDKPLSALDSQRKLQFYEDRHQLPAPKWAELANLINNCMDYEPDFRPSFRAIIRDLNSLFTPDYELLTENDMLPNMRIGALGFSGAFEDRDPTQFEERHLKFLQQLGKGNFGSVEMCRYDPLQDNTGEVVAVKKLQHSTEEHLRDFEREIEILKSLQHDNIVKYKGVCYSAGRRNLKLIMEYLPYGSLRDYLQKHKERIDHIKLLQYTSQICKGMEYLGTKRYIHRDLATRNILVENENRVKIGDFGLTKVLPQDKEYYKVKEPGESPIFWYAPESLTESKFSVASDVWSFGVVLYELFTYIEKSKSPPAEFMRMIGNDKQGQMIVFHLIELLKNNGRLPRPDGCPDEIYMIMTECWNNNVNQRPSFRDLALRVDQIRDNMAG

[4] = target: T2, Non-receptor tyrosine-protein kinase TYK2 (Homo sapiens, UniProt P29597); assay: Inhibition of N-terminal GST tagged human TYK2 (871 to 1187 end residues) catalytic domain expressed in baculovirus expression system at 1 uM in presence of 1 mM ATP relative to control
T2 sequence (P29597 whole entry, the tested form may be a part): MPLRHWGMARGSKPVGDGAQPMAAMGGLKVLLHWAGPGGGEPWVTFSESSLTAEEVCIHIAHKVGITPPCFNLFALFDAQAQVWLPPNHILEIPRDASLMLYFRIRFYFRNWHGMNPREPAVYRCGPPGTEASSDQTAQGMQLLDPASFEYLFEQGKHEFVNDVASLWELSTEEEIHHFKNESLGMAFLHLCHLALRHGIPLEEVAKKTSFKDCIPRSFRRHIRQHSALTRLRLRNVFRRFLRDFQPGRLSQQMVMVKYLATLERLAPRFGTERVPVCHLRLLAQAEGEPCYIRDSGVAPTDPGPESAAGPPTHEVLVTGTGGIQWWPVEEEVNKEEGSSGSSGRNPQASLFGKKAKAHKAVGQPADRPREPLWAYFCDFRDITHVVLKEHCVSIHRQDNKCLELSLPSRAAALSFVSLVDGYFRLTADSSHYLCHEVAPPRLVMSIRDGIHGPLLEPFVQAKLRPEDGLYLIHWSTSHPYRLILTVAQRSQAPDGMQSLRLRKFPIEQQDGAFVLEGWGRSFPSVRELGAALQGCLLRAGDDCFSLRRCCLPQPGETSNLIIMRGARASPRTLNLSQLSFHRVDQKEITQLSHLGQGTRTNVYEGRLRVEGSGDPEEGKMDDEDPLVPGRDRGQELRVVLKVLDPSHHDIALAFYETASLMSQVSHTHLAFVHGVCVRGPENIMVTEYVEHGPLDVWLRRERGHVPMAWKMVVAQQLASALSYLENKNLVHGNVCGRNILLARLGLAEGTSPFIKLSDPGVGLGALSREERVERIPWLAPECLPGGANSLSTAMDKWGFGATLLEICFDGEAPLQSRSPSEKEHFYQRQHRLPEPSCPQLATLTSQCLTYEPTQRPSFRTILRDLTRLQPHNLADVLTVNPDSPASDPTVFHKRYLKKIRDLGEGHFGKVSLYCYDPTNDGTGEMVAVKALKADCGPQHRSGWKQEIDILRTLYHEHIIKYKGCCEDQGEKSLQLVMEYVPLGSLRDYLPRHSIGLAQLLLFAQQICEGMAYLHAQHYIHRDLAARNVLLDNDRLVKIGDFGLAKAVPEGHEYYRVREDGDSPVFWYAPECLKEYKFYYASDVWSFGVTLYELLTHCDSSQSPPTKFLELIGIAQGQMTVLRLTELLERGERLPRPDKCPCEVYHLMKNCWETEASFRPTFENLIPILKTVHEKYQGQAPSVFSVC

[5] = target: Tyrosine-protein kinase JAK3 (Homo sapiens) (UniProt P52333); assay: Inhibition of N-terminal His tagged human JAK3 (795 to 1124 end residues) catalytic domain expressed in baculovirus expression system at 1 uM in presence of ATP at its Km level relative to control
[6] = target: MAP/microtubule affinity-regulating kinase 3 (Homo sapiens) (UniProt P27448); assay: Inhibition of N-terminal GST tagged full length human MARK3 (1 to 729 end residues) expressed in baculovirus expression system at 1 uM in presence of ATP at its Km level relative to control
[7] = target: T2, Non-receptor tyrosine-protein kinase TYK2; assay: Inhibition of N-terminal GST tagged human TYK2 (871 to 1187 end residues) catalytic domain expressed in baculovirus expression system at 1 uM in presence of ATP at its Km level relative to control
[8] = target: Non-receptor tyrosine-protein kinase TNK1 (Homo sapiens) (UniProt Q13470); assay: Inhibition of N-terminal GST tagged human TNK1 (106 to 390 residues) catalytic domain expressed in baculovirus expression system at 1 uM in presence of ATP at its Km level relative to control
[9] = target: T3, Tyrosine-protein kinase JAK1 (Homo sapiens, UniProt P23458); assay: Inhibition of N-terminal GST tagged human JAK1 (850 to 1154 end residues) catalytic domain expressed in baculovirus expression system at 1 uM in presence of 1 mM ATP relative to control
T3 sequence (P23458 whole entry, the tested form may be a part): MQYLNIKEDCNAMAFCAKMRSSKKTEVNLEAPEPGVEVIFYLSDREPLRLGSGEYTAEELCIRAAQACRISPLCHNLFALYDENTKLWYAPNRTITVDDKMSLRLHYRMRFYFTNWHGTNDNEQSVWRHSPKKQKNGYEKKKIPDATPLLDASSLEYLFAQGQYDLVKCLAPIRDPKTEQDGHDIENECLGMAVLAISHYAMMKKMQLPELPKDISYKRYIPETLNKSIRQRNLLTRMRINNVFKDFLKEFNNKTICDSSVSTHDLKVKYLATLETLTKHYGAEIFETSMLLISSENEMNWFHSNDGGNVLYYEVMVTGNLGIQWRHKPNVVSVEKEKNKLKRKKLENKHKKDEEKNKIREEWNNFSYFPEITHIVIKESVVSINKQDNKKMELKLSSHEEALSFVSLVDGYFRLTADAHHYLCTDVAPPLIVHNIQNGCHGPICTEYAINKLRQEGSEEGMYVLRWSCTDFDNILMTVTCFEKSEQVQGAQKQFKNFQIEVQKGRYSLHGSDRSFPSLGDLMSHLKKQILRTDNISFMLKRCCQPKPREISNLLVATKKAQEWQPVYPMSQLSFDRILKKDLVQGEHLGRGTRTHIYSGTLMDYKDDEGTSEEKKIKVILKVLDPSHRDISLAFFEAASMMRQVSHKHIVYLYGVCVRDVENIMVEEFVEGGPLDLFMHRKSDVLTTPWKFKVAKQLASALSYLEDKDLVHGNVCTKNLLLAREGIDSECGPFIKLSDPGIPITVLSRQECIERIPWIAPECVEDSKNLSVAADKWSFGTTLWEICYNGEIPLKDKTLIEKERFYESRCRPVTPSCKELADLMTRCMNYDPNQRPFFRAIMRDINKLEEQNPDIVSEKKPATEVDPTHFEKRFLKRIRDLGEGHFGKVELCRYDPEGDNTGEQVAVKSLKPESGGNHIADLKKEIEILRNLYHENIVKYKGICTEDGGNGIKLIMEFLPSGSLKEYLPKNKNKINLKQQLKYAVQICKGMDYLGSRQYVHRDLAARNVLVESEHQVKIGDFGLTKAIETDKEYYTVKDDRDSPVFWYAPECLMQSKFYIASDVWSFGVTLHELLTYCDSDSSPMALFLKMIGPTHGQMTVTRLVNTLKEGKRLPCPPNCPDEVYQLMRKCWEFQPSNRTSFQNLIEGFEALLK

[10] = target: T1, Tyrosine-protein kinase JAK2; assay: Inhibition of N-terminal His tagged human JAK2 (826 to 1132 end residues) catalytic domain expressed in baculovirus expression system at 1 uM in presence of 1 mM ATP relative to control
[11] = target: Macrophage colony-stimulating factor 1 receptor (Homo sapiens) (UniProt P07333); assay: Inhibition of N-terminal GST tagged human FMS (538 to 972 end residues) cytoplasmic domain expressed in baculovirus expression system at 1 uM in presence of ATP at its Km level relative to control
[12] = target: Serine/threonine-protein kinase SIK2 (Homo sapiens) (UniProt Q9H0K1); assay: Inhibition of N-terminal GST tagged full length human QIK (1 to 926 end residues) expressed in baculovirus expression system at 1 uM in presence of ATP at its Km level relative to control
[13] = tested on: Rattus norvegicus; assay: Antiarthritic activity in complete freund's adjuvant-induced Lewis rat arthritis model assessed as reduction in paw volume administered orally as once daily dose via gavage treated for 7 consecutive days by plethysmography; format: functional, organism-based
[14] = target: NUAK family SNF1-like kinase 1 (Homo sapiens) (UniProt O60285); assay: Inhibition of N-terminal GST tagged full length human Nuak1 (1 to 661 end residues) expressed in baculovirus expression system at 1 uM in presence of ATP at its Km level relative to control
[15] = target: Platelet-derived growth factor receptor alpha (Homo sapiens) (UniProt P16234); assay: Inhibition of N-terminal GST tagged human PDGFRalpha (550 to 1089 end residues) cytoplasmic domain expressed in baculovirus expression system at 1 uM in presence of ATP at its Km level relative to control
[16] = tested on: Platelet-derived growth factor receptor alpha (Homo sapiens), P16234 [V561D]; assay: Inhibition of N-terminal GST tagged human PDGFRalpha (550 to 1089 end residues) catalytic domain V561D mutant expressed in baculovirus expression system at 1 uM in presence of ATP at its Km level relative to control
[17] = target: Dual specificity mitogen-activated protein kinase kinase 5 (Homo sapiens) (UniProt Q13163); assay: Inhibition of N-terminal GST tagged full length human MAP2K5 (1 to 448 end residues) co-expressing His tagged MAP3K3/ CDC37/HSP90 expressed in baculovirus expression system at 1 uM in presence of ATP at its Km level relative to control
[18] = target: Mitogen-activated protein kinase 7 (Homo sapiens) (UniProt Q13164); assay: Inhibition of N-terminal GST tagged human ERK5 (1 to 398 residues) cytoplasmic domain expressed in Escherichia coli at 1 uM in presence of ATP at its Km level relative to control
[19] = target: T3, Tyrosine-protein kinase JAK1; assay: Inhibition of N-terminal GST tagged human JAK1 (850 to 1154 end residues) catalytic domain expressed in baculovirus expression system at 1 uM in presence of ATP at its Km level relative to control
[20] = target: Non-receptor tyrosine-protein kinase TNK1 (Homo sapiens) (UniProt Q13470); assay: Inhibition of N-terminal GST tagged human TNK1 (106 to 390 residues) catalytic domain expressed in baculovirus expression system at 1 uM in presence of 1 mM ATP relative to control
[21] = target: MAP/microtubule affinity-regulating kinase 4 (Homo sapiens) (UniProt Q96L34); assay: Inhibition of N-terminal GST tagged full length human MARK4 (1 to 688 end residues) expressed in baculovirus expression system at 1 uM in presence of ATP at its Km level relative to control
[22] = target: Activated CDC42 kinase 1 (Homo sapiens) (UniProt Q07912); assay: Inhibition of N-terminal GST tagged human ACK (110 to 476 residues) catalytic domain expressed in baculovirus expression system at 1 uM in presence of ATP at its Km level relative to control
[23] = tested on: Platelet-derived growth factor receptor alpha (Homo sapiens), P16234 [T674I]; assay: Inhibition of N-terminal GST tagged human PDGFRalpha (550 to 1089 end residues) catalytic domain T674I mutant expressed in baculovirus expression system at 1 uM in presence of ATP at its Km level relative to control
[24] = target: MAP kinase-interacting serine/threonine-protein kinase 2 (Homo sapiens) (UniProt Q9HBH9); assay: Inhibition of N-terminal GST tagged full length human MNK2 (1 to 465 end residues) expressed in baculovirus expression system at 1 uM in presence of ATP at its Km level relative to control
[25] = target: Aurora kinase A (Homo sapiens) (UniProt O14965); assay: Inhibition of N-terminal GST tagged full length human AurA (1 to 403 end residues) expressed in baculovirus expression system at 1 uM in presence of ATP at its Km level relative to control
[26] = target: Cytochrome P450 3A4 (Homo sapiens, UniProt P08684); assay: Drug metabolism in human liver microsomes assessed as CYP3A4-mediated metabolism; format: ADME
[27] = Drug metabolism in human liver microsomes assessed as N-demethylation; format: ADME, Microsome
[28] = Drug metabolism in rat liver microsomes assessed as N-demethylation; format: ADME, Microsome
[29] = Drug metabolism in human liver microsomes assessed as N-dealkylation; format: ADME, Microsome
[30] = Drug metabolism in monkey liver microsomes assessed as N-demethylation; format: ADME, Macaca mulatta, Microsome; settings: rhesus monkey
[31] = Drug metabolism in rat liver microsomes assessed as CYP3A4-mediated metabolism; format: ADME
[32] = Unbound intrinsic clearance in human hepatocytes assessed as per million cells; format: ADME, cell-based, Hepatocyte
[33] = Drug metabolism in rat liver microsomes assessed as N-dealkylation; format: ADME, Microsome
[34] = Thermodynamic equilibrium solubility of the compound at pH 7.64 phosphate buffer saline by UPLC analysis; format: physicochemical; settings: read-out: Therm_solubility
[35] = Fraction unbound in human plasma; format: ADME, cell-free
[36] = target: T4, Vascular endothelial growth factor receptor 2 (Homo sapiens, UniProt P35968); assay: Inhibition of recombinant human VEGFR2 using Ulight-CAGAGAIETDKEYYTVKD as substrate after 60 mins
T4 sequence (P35968 whole entry): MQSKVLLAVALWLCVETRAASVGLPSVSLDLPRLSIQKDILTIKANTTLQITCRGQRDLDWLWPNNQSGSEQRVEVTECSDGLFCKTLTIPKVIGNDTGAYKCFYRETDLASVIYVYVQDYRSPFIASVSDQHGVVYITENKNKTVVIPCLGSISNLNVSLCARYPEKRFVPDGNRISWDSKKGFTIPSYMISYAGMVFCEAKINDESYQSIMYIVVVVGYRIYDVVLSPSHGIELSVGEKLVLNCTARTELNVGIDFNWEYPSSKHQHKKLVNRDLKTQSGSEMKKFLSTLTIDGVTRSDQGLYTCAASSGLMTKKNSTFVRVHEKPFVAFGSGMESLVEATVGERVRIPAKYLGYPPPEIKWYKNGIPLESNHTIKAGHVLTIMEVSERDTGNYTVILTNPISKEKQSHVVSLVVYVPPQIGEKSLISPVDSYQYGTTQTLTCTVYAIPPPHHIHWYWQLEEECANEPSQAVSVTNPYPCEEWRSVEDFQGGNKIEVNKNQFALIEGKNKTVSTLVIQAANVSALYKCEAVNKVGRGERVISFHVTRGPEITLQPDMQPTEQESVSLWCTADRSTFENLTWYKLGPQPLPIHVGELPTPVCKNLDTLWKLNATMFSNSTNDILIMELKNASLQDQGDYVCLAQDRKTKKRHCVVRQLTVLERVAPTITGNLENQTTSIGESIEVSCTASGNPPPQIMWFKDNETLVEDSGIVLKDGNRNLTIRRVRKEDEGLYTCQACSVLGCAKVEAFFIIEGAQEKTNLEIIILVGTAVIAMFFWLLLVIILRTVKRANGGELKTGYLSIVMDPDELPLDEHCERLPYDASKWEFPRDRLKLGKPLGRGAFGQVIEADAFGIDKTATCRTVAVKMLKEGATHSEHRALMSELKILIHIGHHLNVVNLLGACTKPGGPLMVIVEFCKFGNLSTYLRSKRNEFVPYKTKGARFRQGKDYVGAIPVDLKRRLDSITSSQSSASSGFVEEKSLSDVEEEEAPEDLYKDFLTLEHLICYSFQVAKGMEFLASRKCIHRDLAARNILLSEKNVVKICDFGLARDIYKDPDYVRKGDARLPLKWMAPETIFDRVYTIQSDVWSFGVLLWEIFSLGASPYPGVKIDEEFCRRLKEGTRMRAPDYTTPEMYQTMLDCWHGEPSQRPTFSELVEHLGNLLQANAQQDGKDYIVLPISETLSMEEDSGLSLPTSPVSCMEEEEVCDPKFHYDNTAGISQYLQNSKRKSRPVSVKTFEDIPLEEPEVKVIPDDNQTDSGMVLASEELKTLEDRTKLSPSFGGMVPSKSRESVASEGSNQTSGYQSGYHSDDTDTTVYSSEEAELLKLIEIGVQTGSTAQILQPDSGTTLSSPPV

[37] = Solubility of compound in fasted state simulated intestinal fluid; format: physicochemical
[38] = target: T4, Vascular endothelial growth factor receptor 2; assay: Inhibition of VEGFR2 (unknown origin) by cell based assay
[39] = Drug metabolism in rat liver microsomes assessed as oxidative metabolite formation; format: ADME, Microsome
[40] = Fraction unbound in rat plasma; format: ADME, cell-free
[41] = Drug metabolism in rat liver microsomes assessed as oxidation of N-methy pyrazole; format: ADME, Microsome
[42] = Drug metabolism in monkey liver microsomes assessed as N-dealkylation; format: ADME, Macaca mulatta, Microsome; settings: rhesus monkey
[43] = Drug metabolism in human liver microsomes assessed as oxidation of N-methy pyrazole; format: ADME, Microsome
[44] = physchem; settings: octanol/water phosphate buffer, pH 7.4
[45] = Solubility of compound in fed state simulated intestinal fluid; format: physicochemical
[46] = Drug metabolism in monkey liver microsomes assessed as CYP3A4-mediated metabolism; format: ADME, Macaca mulatta; settings: rhesus monkey
[47] = Passive apparent permeability from apical to basolateral side in RRCK cells; format: ADME, cell-based, Canis lupus familiaris, MDCKII-LE; settings: dog, MDCK
[48] = Drug metabolism in monkey liver microsomes assessed as oxidative metabolite formation; format: ADME, Macaca mulatta, Microsome; settings: rhesus monkey
[49] = Drug metabolism in monkey liver microsomes assessed as oxidation of N-methy pyrazole; format: ADME, Macaca mulatta, Microsome; settings: rhesus monkey
[50] = Unbound intrinsic clearance in human liver microsomes assessed as per mg protein; format: ADME, Microsome
[51] = Drug metabolism in human liver microsomes assessed as oxidative metabolite formation; format: ADME, Microsome

Cn1cc(Nc2nccc(N3CC4CC[C@H](C3)N4C(=O)[C@@H]3CC3(F)F)n2)cn1 (single isomer, unassigned) [listing 1 of 2 here]
inhibition [1]: 66%
inhibition [2]: 77%
inhibition [3]: 101%
inhibition [4]: 98%
inhibition [5]: 92%
inhibition [6]: 50%
inhibition [7]: 101%
inhibition [8]: 94%
inhibition [9]: 96%
inhibition [10]: 94%
inhibition [11]: 59%
inhibition [12]: 91%
Activity [13]: Dose-dependent effect
inhibition [14]: 60%
inhibition [15]: 70%
inhibition [16]: 60%
inhibition [17]: 70%
inhibition [18]: 63%
inhibition [19]: 101%
inhibition [20]: 64%
inhibition [21]: 59%
inhibition [22]: 82%
inhibition [23]: 78%
inhibition [24]: 68%
inhibition [25]: 62%

Cn1cc(Nc2nccc(N3CC4CC[C@H](C3)N4C(=O)[C@@H]3CC3(F)F)n2)cn1 (single isomer, unassigned) [listing 2 of 2 here]
Drug metabolism [26]: Metabolite_Detected
Drug metabolism [27]: Metabolite_Detected
Drug metabolism [28]: Metabolite_Detected
Drug metabolism [29]: Metabolite_Detected
Drug metabolism [30]: Metabolite_Detected
Drug metabolism [31]: Metabolite_Detected
CL free [32]: < 0.6 µL/min
Drug metabolism [33]: Metabolite_Detected
solubility thermodynamic [34]: 4840 µg/mL (≈ 12.4 mM)
fraction unbound [35]: 0.61
IC50 [36]: 1600 nM
solubility [37]: > 7000 µg/mL
IC50 [38]: > 30000 nM
Drug metabolism [39]: Metabolite_Detected
fraction unbound [40]: 0.69
Drug metabolism [41]: Metabolite_Detected
Drug metabolism [42]: Metabolite_Detected
Drug metabolism [43]: Metabolite_Detected
logD [44]: 1.61
solubility [45]: > 7000 µg/mL
Drug metabolism [46]: Metabolite_Detected
Papp A→B [47]: 18.8 ×10⁻⁶ cm/s
Drug metabolism [48]: Metabolite_Detected
Drug metabolism [49]: Metabolite_Detected
CL free [50]: < 10 µL/min
Drug metabolism [51]: Metabolite_Detected
